# Measurements from patent US20210275447A1, “SUSTAINED-RELEASE OPHTHALMIC PHARMACEUTICAL COMPOSITIONS AND USES THEREOF” (TAIWAN LIPOSOME CO., LTD., priority 2018, published 2021).
# Structures can show the parent of a compound that is named as a salt.
# Legend:
# [1] = Drug loading of liposomes by remote loading: drug to lipid molar ratio and encapsulation efficiency; type: physicochemical; details: 300 mM AS, 2 mg/mL drug
# Protocol: The dry lipid was hydrated in a trapping agent, 300 mM ammonium sulfate (AS), for 30 min at the temperature above the transition temperature to form the MLVs. […] After extrusion, unencapsulated trapping agent was removed by dialysis method or diafiltration method against 9.4% sucrose solution or 0.9% NaCl to create a polyatomic ion gradient between the inner aqueous phase and the outer aqueous phase of the empty liposomes.
# A reaction mixture containing 10.0 mg/mL of sunitinib (LC Laboratories, USA), empty liposomes (with 20.0 mM of lipids prepared according to Example 1), and 40 mM histidine buffer (pH 7) was incubated at 40° C. for 15 min The unencapsulated sunitinib of the reaction mixture was removed by a Sephadex™ G-50 Fine gel (GE Healthcare, USA) or dialysis bag (Spectrum Labs, USA) against a 9.4% sucrose solution to obtain a liposomal sunitinib formulation. The encapsulated sunitinib concentration and the lipid concentration of the liposomal sunitinib formulation were measured using an ultraviolet/visible (UV/Vis) spectrophotometer to calculate the drug to lipid molar ratio (D/L) of the liposomal sunitinib formulation.
# The encapsulation efficiency was calculated by comparing the drug to lipid molar ratio (D/L) of the liposomal sunitinib formulation to the nominal D/L of the reaction mixture, which is dividing the initial added concentration of sunitinib by the initial added concentration of lipid of empty liposome.
# An initial loading concentration of 4.0 mg/mL of sunitinib or sunitinib malate was mixed with the empty liposomes according to the procedures of Example 2.
# [2] = In vitro release through dialysis bag in rabbit vitreous humor; type: in vitro ADME; details: PBS pH 7.4, 37° C., released immediately, FIG. 1
# Protocol: Each dialysis bag contained 950 μL of rabbit vitreous humor (Pel-Freez Biologicals, USA) and both ends of the dialysis bags were then sealed. Each dialysis bag was immersed in 25 mL of PBS at pH 7.4 in a 50-mL centrifuge tube and incubated in a water bath at 37±1° C. for 24 hours. At designated time points after incubation (1, 2, 4, 6, 24, 48, 122, 146 and 168 hours), 0.5 mL aliquot from the 25 mL PBS inside each centrifuge tube was sampled and 0.5 mL of fresh PBS was added to replenish the sampled aliquot. Drug concentrations of the sampled aliquots at each time point were analyzed using high performance liquid chromatography (HPLC) to create the in vitro release profile of the liposomal composition.
# [3] = liposomes DOPC/cholesterol (66.7/33.3)
# [4] = liposomes POPC/cholesterol (66.7/33.3)
"EE (%), encapsulation efficiency [1, 3]","Purified D/PL (mole/mole) [1, 3]","EE (%), encapsulation efficiency [1, 4]","Purified D/PL (mole/mole) [1, 4]",time after which release reached a plateau [2],SMILES
91.3%,1.24 mole/mole,66.6%,0.90 mole/mole,,"Cc1ccc(NC(=O)c2ccc(CN3CCN(C)CC3)cc2)cc1Nc1nccc(-c2cccnc2)n1 [Imatinib, imatinib mesylate]"
,,,,6 h,"CCN(CC)CCNC(=O)c1c(C)[nH]c(/C=C2\C(=O)Nc3ccc(F)cc32)c1C [free sunitinib, sunitinib]"
